Measured values reported in the NIST ThermoML archive (doi:10.1021/je060203o).
Numbers after ± are expanded uncertainties.

Details: Liquid; for speed of sound: Pulse-echo method; for mass density: Vibrating tube method

CCCn1cc[n+](C)c1.O=S(=O)([N-]S(=O)(=O)C(F)(F)F)C(F)(F)F
Details | mass density [kg/m3] | speed of sound [m/s]
318.15 K, 10000 kPa | – | 1225.2 ± 3.1
318.15 K, 10020 kPa | 1464.41 ± 2.7 | –
318.15 K, 13500 kPa | – | 1236.8 ± 3.1
318.15 K, 14980 kPa | 1467.91 ± 2.9 | –
318.15 K, 17000 kPa | – | 1248.2 ± 3.1
318.15 K, 19750 kPa | 1471.3 ± 3 | –
318.15 K, 20000 kPa | – | 1257.7 ± 3.1
318.15 K, 25860 kPa | 1475.51 ± 3.2 | –
318.15 K, 30000 kPa | – | 1288.7 ± 3.2
318.15 K, 31480 kPa | 1479.58 ± 3.3 | –
318.15 K, 37770 kPa | 1483.63 ± 3.5 | –
318.15 K, 40000 kPa | – | 1317.8 ± 3.2
318.15 K, 44170 kPa | 1487.95 ± 3.7 | –
318.15 K, 50000 kPa | – | 1345.7 ± 3.2
318.15 K, 50750 kPa | 1492.22 ± 3.9 | –
318.15 K, 59590 kPa | 1498.46 ± 4.1 | –
318.15 K, 60000 kPa | – | 1372.2 ± 3.2
318.15 K, 70000 kPa | – | 1397.8 ± 3.2
318.15 K, 80000 kPa | – | 1422.3 ± 3.2
318.15 K, 90000 kPa | – | 1446.3 ± 3.2
318.15 K, 100000 kPa | – | 1468.9 ± 3.2
318.15 K, 112500 kPa | – | 1496.5 ± 3.2
318.15 K, 125000 kPa | – | 1523.2 ± 3.2
318.15 K, 137510 kPa | – | 1548.4 ± 3.2
318.15 K, 150000 kPa | – | 1572.9 ± 3.2
318.15 K, 162500 kPa | – | 1596.6 ± 3.2
318.15 K, 175000 kPa | – | 1620 ± 3.2
318.15 K, 187500 kPa | – | 1642.7 ± 3.2
318.15 K, 200000 kPa | – | 1664.6 ± 3.2
323.15 K, 100 kPa | 1451.66 ± 2.5 | –
323.15 K, 1830 kPa | 1452.94 ± 2.5 | –
323.15 K, 10020 kPa | 1459.11 ± 2.7 | –
323.15 K, 14980 kPa | 1462.75 ± 2.9 | –
323.15 K, 19750 kPa | 1466.15 ± 3 | –
323.15 K, 25860 kPa | 1470.44 ± 3.1 | –
323.15 K, 31480 kPa | 1474.24 ± 3.3 | –
323.15 K, 37770 kPa | 1478.57 ± 3.5 | –
323.15 K, 44170 kPa | 1482.86 ± 3.6 | –
323.15 K, 50750 kPa | 1487.24 ± 3.8 | –
323.15 K, 59590 kPa | 1493.03 ± 4.1 | –
325.15 K, 100 kPa | 1449.44 ± 2.5 | –
325.15 K, 1830 kPa | 1450.74 ± 2.5 | –
325.15 K, 10020 kPa | 1456.98 ± 2.7 | –
325.15 K, 14980 kPa | 1460.64 ± 2.8 | –
325.15 K, 19750 kPa | 1464.08 ± 3 | –
325.15 K, 25860 kPa | 1468.44 ± 3.1 | –
325.15 K, 31480 kPa | 1472.46 ± 3.3 | –
325.15 K, 37770 kPa | 1476.81 ± 3.5 | –
325.15 K, 44170 kPa | 1481.18 ± 3.6 | –
325.15 K, 50750 kPa | 1485.62 ± 3.8 | –
325.15 K, 59590 kPa | 1491.56 ± 4.1 | –
327.15 K, 100 kPa | 1447.19 ± 2.5 | –
327.15 K, 1830 kPa | 1448.52 ± 2.5 | –
327.15 K, 10020 kPa | 1454.88 ± 2.7 | –
327.15 K, 14980 kPa | 1458.57 ± 2.8 | –
327.15 K, 19750 kPa | 1461.98 ± 3 | –
327.15 K, 25860 kPa | 1466.38 ± 3.1 | –
327.15 K, 31480 kPa | 1470.37 ± 3.3 | –
327.15 K, 37770 kPa | 1474.75 ± 3.4 | –
327.15 K, 44170 kPa | 1479.18 ± 3.6 | –
327.15 K, 50750 kPa | 1483.65 ± 3.8 | –
327.15 K, 59590 kPa | 1489.6 ± 4.1 | –
328.15 K, 500 kPa | – | 1170.9 ± 3.1
328.15 K, 3500 kPa | – | 1181.8 ± 3.1
328.15 K, 7000 kPa | – | 1194.2 ± 3.1
328.15 K, 10000 kPa | – | 1204.7 ± 3.1
328.15 K, 13500 kPa | – | 1216.4 ± 3.1
328.15 K, 17000 kPa | – | 1228 ± 3.1
328.15 K, 20000 kPa | – | 1237.7 ± 3.1
328.15 K, 30000 kPa | – | 1269.2 ± 3.2
328.15 K, 40000 kPa | – | 1299.1 ± 3.2
328.15 K, 50000 kPa | – | 1327.3 ± 3.2
328.15 K, 60000 kPa | – | 1354.2 ± 3.2
328.15 K, 70000 kPa | – | 1380.1 ± 3.2
328.15 K, 80000 kPa | – | 1405.1 ± 3.2
328.15 K, 90000 kPa | – | 1429.1 ± 3.2
328.15 K, 100000 kPa | – | 1452.2 ± 3.2
328.15 K, 112500 kPa | – | 1480.1 ± 3.2
328.15 K, 125000 kPa | – | 1506.9 ± 3.2
328.15 K, 137510 kPa | – | 1532.8 ± 3.2
328.15 K, 150000 kPa | – | 1557 ± 3.2
328.15 K, 162500 kPa | – | 1581.2 ± 3.2
328.15 K, 175000 kPa | – | 1604.6 ± 3.2
328.15 K, 187500 kPa | – | 1627.3 ± 3.2
328.15 K, 200000 kPa | – | 1649.6 ± 3.2
329.15 K, 100 kPa | 1444.85 ± 2.4 | –
329.15 K, 1830 kPa | 1446.17 ± 2.5 | –
329.15 K, 10020 kPa | 1452.55 ± 2.7 | –
329.15 K, 14980 kPa | 1456.27 ± 2.8 | –
329.15 K, 19750 kPa | 1459.81 ± 2.9 | –
329.15 K, 25860 kPa | 1464.24 ± 3.1 | –
329.15 K, 31480 kPa | 1468.26 ± 3.3 | –
329.15 K, 37770 kPa | 1472.67 ± 3.4 | –
329.15 K, 44170 kPa | 1477.09 ± 3.6 | –
329.15 K, 50750 kPa | 1481.63 ± 3.8 | –
329.15 K, 59590 kPa | 1487.58 ± 4 | –
331.15 K, 100 kPa | 1442.53 ± 2.4 | –
331.15 K, 1830 kPa | 1443.83 ± 2.5 | –
331.15 K, 10020 kPa | 1450.37 ± 2.7 | –
331.15 K, 14980 kPa | 1454.12 ± 2.8 | –
331.15 K, 19750 kPa | 1457.75 ± 2.9 | –
331.15 K, 25860 kPa | 1462.22 ± 3.1 | –
331.15 K, 31480 kPa | 1466.27 ± 3.2 | –
331.15 K, 37770 kPa | 1470.7 ± 3.4 | –
331.15 K, 44170 kPa | 1475.13 ± 3.6 | –
331.15 K, 50750 kPa | 1479.63 ± 3.8 | –
331.15 K, 59590 kPa | 1485.58 ± 4 | –
333.15 K, 100 kPa | 1440.12 ± 2.4 | –
333.15 K, 1830 kPa | 1441.48 ± 2.5 | –
333.15 K, 10020 kPa | 1448.04 ± 2.7 | –
333.15 K, 14980 kPa | 1451.88 ± 2.8 | –
333.15 K, 19750 kPa | 1455.51 ± 2.9 | –
333.15 K, 25860 kPa | 1460.01 ± 3.1 | –
333.15 K, 31480 kPa | 1464.11 ± 3.2 | –
333.15 K, 37770 kPa | 1468.58 ± 3.4 | –
333.15 K, 44170 kPa | 1473.05 ± 3.6 | –
333.15 K, 50750 kPa | 1477.56 ± 3.8 | –
333.15 K, 59590 kPa | 1483.54 ± 4 | –
338.15 K, 1420 kPa | – | 1153.5 ± 3.1
338.15 K, 3500 kPa | – | 1161.2 ± 3.1
338.15 K, 7000 kPa | – | 1173.8 ± 3.1
338.15 K, 10000 kPa | – | 1184.4 ± 3.1
338.15 K, 13500 kPa | – | 1196.6 ± 3.1
338.15 K, 17000 kPa | – | 1208.3 ± 3.1
338.15 K, 20000 kPa | – | 1218.2 ± 3.1
338.15 K, 30000 kPa | – | 1250.4 ± 3.2
338.15 K, 40000 kPa | – | 1280.7 ± 3.2
338.15 K, 50000 kPa | – | 1309.2 ± 3.2
338.15 K, 60000 kPa | – | 1336.7 ± 3.2
338.15 K, 70000 kPa | – | 1362.9 ± 3.2
338.15 K, 80000 kPa | – | 1388.1 ± 3.2
338.15 K, 90000 kPa | – | 1412.3 ± 3.2
338.15 K, 100000 kPa | – | 1435.8 ± 3.2
338.15 K, 112500 kPa | – | 1463.9 ± 3.2
338.15 K, 125000 kPa | – | 1491.1 ± 3.2
338.15 K, 137510 kPa | – | 1517 ± 3.2
338.15 K, 150000 kPa | – | 1541.4 ± 3.2
338.15 K, 162500 kPa | – | 1566 ± 3.2
338.15 K, 175000 kPa | – | 1589.5 ± 3.2
